What was measured:
TDP1 [1] = molecular target: T1, TDP1 (Homo sapiens, UniProt Q9NUW8); experiment: Real-time fluorescence detection of TDP1 activity, single-stranded FAM/BHQ biosensor; format: biochemical; settings: for Inhibitory effect on TDP1 activity (in words): single-stranded fluorescent biosensor, primary screening
T1 construct: made in house; host or cells: E. coli
Procedure: (§1) Conditions and details for our real-time detection of TDP1 activity using the single-stranded and hairpin fluorescent biosensors were reported in our previous work[47]. Briefly, the approach consists in fluorescence intensity measurement of the reaction of quencher removal from the fluorophore-quencher coupled DNA-oligonucleotide catalysed by TDP1 in the presence of inhibitor and in the absence of it (the control samples contained 1% DMSO). Reaction mixtures (200 µl) contained TDP1 buffer (50 mM Tris-HCl, pH 8.0, 50 mM NaCl, 7 mM β-mercaptoethanol), oligonucleotide (50 nM substrate of TDP1), testable inhibitor and purified TDP1 (1.5 nM). The reactions were incubated at a constant temperature of 26 °C in a POLARstar OPTIMA fluorimeter, BMG LABTECH, GmbH, to measure fluorescence every 55 s (Ex485/Em520 nm) during the linear phase (here data from 0 to 8 min). The average values of half maximal inhibitory concentration (IC50) were determined using an eleven-point concentration response curve in three independent experiments and calculated using MARS Data Analysis 2.0 (BMG LABTECH).
To discover inhibitors of TDP1 we recently developed original single-stranded and hairpin fluorophore–quencher coupled DNA-biosensors for real-time measurement of TDP1 cleavage activity. The single-stranded substrate is a 16-mer oligonucleotide containing both 5′-FAM fluorophore donor and a quenching 3′-BHQ moiety (Figure 1(A)). When the quencher is removed by TDP1, the fluorescence intensity increases and can be measured by fluorimeter (TDP1 catalysed reaction on biosensor is shown in Figure 3(A). Fluorescence intensity declines in the presence of inhibitor, the resulting curves of the dependence of TDP1 residual activity as a function of the concentration of inhibitors were obtained using 4-parameter logistic regression fit, which was used to calculate IC50 values[47]^,[58].
For primary screening, the effect of a large group of disaccharide nucleosides and their hydrophobic derivatives on human recombinant TDP1 activity has been evaluated by fluorescent method on a single-stranded substrate described above.

PARP1 = test system: PARP1; parameters: method as in PMID 24079274; settings: cited from earlier work
TDP1 [2] = molecular target: T1, TDP1; experiment: Steady-state kinetic analysis of TDP1 reaction, double-stranded (hairpin) substrate; format: biochemical; settings: for Ki: Cornish-Bowden method, read-out: Inhibition constant, KI
Procedure: (§2) To determine the kinetic parameters: apparent maximum rate of enzymatic reaction (Vmax), Michaelis constant (KM), constant of inhibition (KI), and possible inhibition mechanism, steady-state kinetic experiments were carried out at five fixed concentrations of substrate with variation of inhibitor concentrations. The standard reaction mixtures (200 μl) contained 50 nM, 100 nM, 200 nM, 500 nM or 1000 nM substrate, testable inhibitor, 1.5 nM recombinant human TDP1 and reaction buffer components (50 mM Tris-HCl, pH 8.0, 50 mM NaCl, 7 mM β-mercaptoethanol). After addition of the enzyme, the reaction mixtures were incubated at a constant temperature of 26 °C and measured in a POLARstar OPTIMA fluorimeter, BMG LABTECH, GmbH, to measure fluorescence every 55 s (Ex485/Em520 nm) during the linear phase (data from 0 to 8 min). The initial data (kinetic curves) were obtained in three independent experiments and statistically processed in software OriginPro 8.6.0.
(§3) Values of the inhibition constant (KI) were determined using Cornish–Bowden method. Similar experiments were performed for all seven tested inhibitors on two types of DNA substrates, and the results are shown in Table 4.

[3] = molecular target: T2, SCAN1 (mutant form of TDP1 with H493R substitution) (Homo sapiens, UniProt Q9NUW8, H493R); experiment: Fluorescence real-time assay on mutant TDP1 (SCAN1), single-stranded oligonucleotide; format: biochemical
T2 construct: made in house; host or cells: E. coli
T2 sequence (Q9NUW8 whole entry H493R): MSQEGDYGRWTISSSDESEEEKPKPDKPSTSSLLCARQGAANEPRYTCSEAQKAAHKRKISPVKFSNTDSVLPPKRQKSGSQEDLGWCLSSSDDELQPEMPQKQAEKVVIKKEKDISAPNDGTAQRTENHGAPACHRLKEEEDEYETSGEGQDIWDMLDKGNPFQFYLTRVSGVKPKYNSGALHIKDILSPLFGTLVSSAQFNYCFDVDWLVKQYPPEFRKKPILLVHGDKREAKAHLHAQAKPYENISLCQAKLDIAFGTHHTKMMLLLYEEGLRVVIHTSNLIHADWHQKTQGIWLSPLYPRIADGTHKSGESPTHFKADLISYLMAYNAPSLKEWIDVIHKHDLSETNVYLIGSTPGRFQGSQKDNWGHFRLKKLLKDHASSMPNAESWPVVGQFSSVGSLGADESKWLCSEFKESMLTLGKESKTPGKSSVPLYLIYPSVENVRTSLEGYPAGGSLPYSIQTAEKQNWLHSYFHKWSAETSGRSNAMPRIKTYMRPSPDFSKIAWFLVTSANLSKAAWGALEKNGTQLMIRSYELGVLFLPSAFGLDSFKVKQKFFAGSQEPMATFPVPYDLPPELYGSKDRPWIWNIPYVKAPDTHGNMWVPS
Excerpt: The recombinant tyrosyl-DNA phosphodiesterase 1 and the mutant form of TDP1 with substitution (H493R) were expressed in the E. coli system (plasmids pET16B-TDP1 and pET16B-SCAN1 were provided by Dr. K.W. Caldecott, University of Sussex, United Kingdom and by Dr. S. El-Khamisy, University of Sheffield, United Kingdom) and purified according to the previously described technique.
as §1
The IC50 values obtained by the fluorescence real-time assay on a single-stranded oligonucleotide (section 3.1) were higher than 100 μM.

TDP1 [4] = molecular target: T1, TDP1; experiment: Fluorescence anisotropy assay of TDP1-DNA substrate complex; format: binding; settings: 3 nM single-strand oligonucleotide without quencher, 50 nM TDP1
Procedure: Fluorescence anisotropy was measured by using a fluorescent single-strand DNA-oligonucleotide (3 nM) without quencher at the 3′-end in the presence of the inhibitor in different concentrations (Fluorescein control, CFlu = 10^−9 M). Reaction mixtures (200 µl) contained TDP1 buffer (50 mM Tris-HCl, pH 8.0, 50 mM NaCl, 7 mM β-mercaptoethanol), a single-strand DNA-oligonucleotide without quencher (3 nM substrate of TDP1), a testable inhibitor and the purified TDP1 (50 nM). The reactions were incubated at a constant temperature of 26 °C in a POLARstar OPTIMA fluorimeter, BMG LABTECH, GmbH, to measure fluorescence anisotropy every 55 s (Ex482/Em530 nm) during the linear phase (from 0 to 8 min) in two independent experiments.
Fluorescence anisotropy (r) was calculated by using the Equation (1): (1) r = (III–I⊥)/(III+ 2I⊥)
The dependence of the anisotropy on the concentration of the inhibitor was determined using a six-point response curve in two independent experiments and calculated using MARS Data Analysis 2.0 (BMG LABTECH).
To obtain some information about interaction of disaccharide nucleosides with TDP1, anisotropy of the fluorescent DNA substrate was measured. We used single-stranded oligonucleotide without a quencher at the 3′-end in the presence of testable inhibitors at different concentrations.

[5] = test system: A-549 cell line (adenocarcinomic human alveolar basal epithelial cells); experiment: MTT test, cytotoxicity and combination with topotecan, A-549; format: cell-based; settings: A-549 cells; for Synergistic coefficient (SC) with topotecan: MTT, inhibitor in combination with topotecan, SC < 1 indicates synergy; for Effect on cytotoxic effect of topotecan (in words): non-toxic inhibitor concentrations
Procedure: (§4) Tumour cell line A549 (adenocarcinomic human alveolar basal epithelial cells) and noncancerous cell line WI-38 (fibroblasts derived from lung tissue of a 3 months gestation […] fetus) were used in cell-based experiments to determine the cytotoxicity of inhibitors and their effect on antitumour drug topotecan using standard MTT test[48]. Cells were incubated in Iscove’s Modified Dulbecco’s Medium (IMDM) supplemented with 10% fetal bovine serum and 40 µg/ml gentamicin, 10 U/ml penicillin, […], 0.25 µg/ml amphotericin at 37 °C and 5% CO2 for 24 h in a CO2 incubator; the optical density of the final solution was measured in the wells of the microplate at 570 nm and 620 nm wavelengths using a MultiScan FC (Thermo Scientific) microplate reader.
(§5) To study the effect of inhibitors on the cytotoxic effect of a well-known antitumour drug, the topotecan of the manufacturer “ACTAVIS GROUP PTC ehf.” was used. First of all, the 50% cytotoxic concentration (CC50) for topotecan and each inhibitor were determined to produce a defined single-agent effect. Second, three independent MTT-tests were performed with each inhibitor in combination with topotecan. Then, the synergistic coefficient (SC) was calculated according to the following formula (2)[49]: (2) SC= CC50 tpc,(+I)/CC50 tpc+CC50 I, (+tpc)/CC50 I,
(§6) CC50 tpc,(+I) and CC50 I,(+tpc) are the concentrations of topotecan and inhibitor used in combination to achieve 50% drug effect. CC50 tpc and CC50 I are the concentrations for single agents to achieve the same effect. SC values of less than, equal to, or more than 1 indicates synergy, additivity, and antagonism, respectively. The results were calculated and statistically processed in Microsoft Excel.

TDP1 [6] = molecular target: T1, TDP1; experiment: Steady-state kinetic analysis of TDP1 reaction, single-stranded substrate; format: biochemical; settings: for Ki: Cornish-Bowden method, read-out: Inhibition constant, KI
Procedure: as §2
Vmax and KM decrease proportionally (Figure 6(A,B)), which corresponds to the uncompetitive type of inhibition, according to the general equation of the rate of product formation in the Michaelis–Menten kinetics.
as §3

[7] = test system: WI-38 cell line (noncancerous fibroblasts derived from lung tissue); experiment: MTT test, cytotoxicity and combination with topotecan, WI-38; format: cell-based, human; settings: WI-38 non-cancerous cell line
Procedure: as §4, §5, §6

T1 sequence (Q9NUW8 whole entry): as the sequence (Q9NUW8 whole entry H493R) above, with R493H counted along it

Cc1cn([C@H]2C[C@H](O[C@@H]3O[C@H](CO)[C@@H](O)[C@H]3O)[C@@H](CO)O2)c(=O)[nH]c1=O [Compound 24]
Inhibitory effect on TDP1 activity (in words) (TDP1 [1]): not inhibited | IC50 (PARP1): 38 ± 4 µM

Cc1cn([C@H]2C[C@H](O[C@@H](C=O)O[C@@H](C=O)CO)[C@@H](CO)O2)c(=O)[nH]c1=O [Compound 29]
Inhibitory effect on TDP1 activity (in words) (TDP1 [1]): did not lead to the noticeable inhibitory activity | IC50 (PARP1): 25 ± 3 µM

O=C(OC[C@H]1O[C@@H](O[C@H]2C[C@H](n3cc(I)c(=O)[nH]c3=O)O[C@@H]2CO)[C@H](OC(=O)c2ccccc2)[C@@H]1OC(=O)c1ccccc1)c1ccccc1 [Compound 41]
Type of inhibition (TDP1 [2]): Uncompetitive | Ki (TDP1 [2]): 2.1 ± 0.5 µM | IC50 [3]: > 100 µM | Change of fluorescence anisotropy with inhibitor concentration (TDP1 [4]): anisotropy remained unchanged | IC50 (TDP1 [1]; single-stranded fluorescent biosensor 50 nM, TDP1 1.5 nM, 26 °C, read-out: IC50 (half-maximal inhibitory concentration) of TDP1 activity): 2.8 ± 0.2 µM | Synergistic coefficient (SC) with topotecan [5]: less than or equal to 0.7 | Effect on cytotoxic effect of topotecan (in words) [5]: significant increase of cytotoxic effect of topotecan | Type of inhibition (TDP1 [6]): Uncompetitive | Ki (TDP1 [6]): 0.6 ± 0.3 µM | Synergy with topotecan (in words) [7]: demonstrated synergy with topotecan

CC(C)[Si]1(C(C)C)OC[C@H]2O[C@@H](n3ccc(=O)[nH]c3=O)[C@H](O[C@@H]3O[C@H](COC(=O)c4ccccc4)[C@@H](OC(=O)c4ccccc4)[C@H]3OC(=O)c3ccccc3)[C@@H]2O[Si](C(C)C)(C(C)C)O1 [Compound 21]
Type of inhibition (TDP1 [2]): Mixed | Ki (TDP1 [2]): 0.4 ± 0.3 µM | IC50 [3]: > 100 µM | Change of fluorescence anisotropy with inhibitor concentration (TDP1 [4]): significant decrease in the anisotropy | Synergistic coefficient (SC) with topotecan [5]: less than or equal to 0.7 | Effect on cytotoxic effect of topotecan (in words) [5]: significant increase of cytotoxic effect of topotecan | Type of inhibition (TDP1 [6]): Mixed | Ki (TDP1 [6]): 0.3 ± 0.2 µM | Synergy with topotecan (in words) [7]: demonstrated synergy with topotecan
